12 compounds from patent US12612366B2, “Salts and crystal forms of omecamtiv mecarbil” (Amgen Inc., priority 2018, dated 2026) can be followed below.

Where a name gives a salt, the structure may show the parent alone.

The nature of data set [1]: Solubility: excess solid in water, pH 1.0 or pH 4.5 buffer, filtrate analyzed by HPLC-UV. It counts as physicochemical. To be noted: for pH given with the water solubility: water solubility sample; for Water solubility / Solubility in pH 1 buffer / Solubility in pH 4.5 buffer: room temperature; for Water solubility: suspension dispersed for at least 24, filtered, HPLC-UV, pH given in brackets. On the procedure:
An excess of solid was added to water, pH 1.0 or pH 4.5 buffer to produce a suspension and dispersed for at least 24 at room temperature. Suspensions were filtered. Filtrate was analyzed by HPLC-UV and compared against a standard curve to determine the solution concentration of the crystal form.

Data set [2] can be described thus: Moisture sorption (dynamic vapor sorption, DVS). To be noted: 25° C.; for Vapor sorption behaviour (hygroscopicity, form conversion): DVS 0-95% RH. The data set is classed as physicochemical. On the procedure:
Moisture balance was collected using a dynamic vapor sorption (DVS) analyzer. Relative humidity (RH) was set to 0, 5, 15, 25, 35, 45, 55, 65, 75, 85 and 95% RH for 2 sorption/desorption cycles at 25° C. Equilibration criteria was set at 0.001% weight. Approximately 10 mg of sample was used.

On to `COC(=O)N1CCN(Cc2cccc(NC(=O)Nc3ccc(C)nc3)c2F)CC1` [Bis-malonate crystalline salt, omecamtiv mecarbil], for which, in data set [1], the “pH given with the water solubility” value worked out at 3.69 and the Water solubility result is listed as “greater than 62 mg/mL”.

On to `COC(=O)N1CCN(Cc2cccc(NC(=O)Nc3ccc(C)nc3)c2F)CC1` [Mesylate crystalline salt form A, omecamtiv mecarbil], for which, in data set [1], the “pH given with the water solubility” value is listed as 1.39 and the Water solubility entry is “greater than 72 mg/mL”.

In the case of `COC(=O)N1CCN(Cc2cccc(NC(=O)Nc3ccc(C)nc3)c2F)CC1` [Bis-fumarate crystalline salt form C, omecamtiv mecarbil], in data set [1], the “pH given with the water solubility” value is 3.1 and the Water solubility was 13700 µg/mL.

For `COC(=O)N1CCN(Cc2cccc(NC(=O)Nc3ccc(C)nc3)c2F)CC1` [Bis-sulfate crystalline salt form B, omecamtiv mecarbil], in data set [1], the “pH given with the water solubility” value came out at 3.5 and the Water solubility amounted to 9000 µg/mL.

Consider `COC(=O)N1CCN(Cc2cccc(NC(=O)Nc3ccc(C)nc3)c2F)CC1` [Bis-naphthalate-2-sulfonate crystalline salt] [omecamtiv mecarbil], for which, in data set [1], the “Solubility in pH 1 buffer” value is recorded as “greater than 10 mg/mL” and the “Solubility in pH 4.5 buffer” value is “greater than 10 mg/mL”.

`COC(=O)N1CCN(Cc2cccc(NC(=O)Nc3ccc(C)nc3)c2F)CC1` [Bis-mesylate crystalline salt form B, omecamtiv mecarbil]: in data set [1], the “Solubility in pH 1 buffer” value is recorded as “greater than 23 mg/mL” and the “Solubility in pH 4.5 buffer” value was “greater than 23 mg/mL”.

On to `COC(=O)N1CCN(Cc2cccc(NC(=O)Nc3ccc(C)nc3)c2F)CC1` [Bis-tartrate crystalline salt form A, omecamtiv mecarbil], for which, in data set [1], the “pH given with the water solubility” value was 3.28 and the Water solubility was greater than 53000 µg/mL.

With `COC(=O)N1CCN(Cc2cccc(NC(=O)Nc3ccc(C)nc3)c2F)CC1` [Mono-napadisylate crystalline salt, omecamtiv mecarbil], in data set [1], the “pH given with the water solubility” value is reported as 2.35 and the Water solubility was 300 µg/mL.

In the case of `COC(=O)N1CCN(Cc2cccc(NC(=O)Nc3ccc(C)nc3)c2F)CC1` [Hemi-succinate crystalline salt, omecamtiv mecarbil], in data set [1], the “pH given with the water solubility” value was 4.7 and the Water solubility was 7400 µg/mL.

Take `COC(=O)N1CCN(Cc2cccc(NC(=O)Nc3ccc(C)nc3)c2F)CC1` [Bis-sulfate crystalline salt form A, omecamtiv mecarbil]: in data set [1], the “pH given with the water solubility” value is reported as 1.5 and the Water solubility was 16000 µg/mL.

As for `COC(=O)N1CCN(Cc2cccc(NC(=O)Nc3ccc(C)nc3)c2F)CC1` [Amorphous hydrochloride salt, omecamtiv mecarbil], the “Vapor sorption behaviour (hygroscopicity, form conversion)” value in data set [2] was “hygroscopic and converts to the crystalline bis-hydrochloride monohydrate Form A”; in data set [2] (listed as amorphous hydrochloride salt), “weight loss due to crystallization to Form A up to 95% RH”. Moreover, the “Moisture sorption weight gain” value in data set [2] (by 50% RH) is recorded as roughly 11%.

`COC(=O)N1CCN(Cc2cccc(NC(=O)Nc3ccc(C)nc3)c2F)CC1` [bis-maleate crystalline salt form A, omecamtiv mecarbil]: in data set [1], the “pH given with the water solubility” value came out at 3.7 and the Water solubility stood at 3800 µg/mL.
